Legend:
[1] = Phase 1 MAD study: cognitive testing in healthy elderly cohort; assay type: in vivo, human; conditions: 560 mg for 14 days (N = 7)
Procedure: The Alzheimer's Disease Assessment Scale-Cognition Subscale (ADAS-Cog 13) and a cognitive battery (including the category fluency test, controlled word association test, WMS-R digit span, digit symbol substitution test, and Rey Auditory Verbal Learning Test) were administered to subjects in the elderly cohort at baseline and on Day 14.

CSF proteins = test: Phase 1b/2a trial: CSF protein expression by LC/MSMS; assay type: in vivo, human
Procedure: COG0102 clinical trial: This trial (ClinicalTrials.gov NCT02907567) was a randomized, double-blind, placebo-controlled clinical trial in mild to moderate Alzheimer's patients (MMSE 18-26) (See FIG. 1 for clinical trial design). The trial was conducted at six sites in Australia. Patients were randomized into placebo (n=5) or CT1812-treated groups: 90 mg (n=4), 280 mg (n=5) or 560 mg (n=5) and treated once daily for 28 days. Clinical chemistry was done at Sydpath (Sydney, AU). Pharmacokinetics were done at CPR Pharma Services (Adelaide, AU). Cerebrospinal fluid samples were taken at screening and day 21-28 of treatment and aliquoted. Plasma samples were taken at screening or Day 1 (one sample) and day 14-28, then spun down to separate plasma and aliquoted. One set of CSF samples was analyzed for Alzheimer's disease biomarkers; protein measurements (Aβ42, Aβ40, total tau, tau phosphorylated at threonine 181 (phosphorylated tau), NFL and neurogranin) were performed using commercially available ELISA assays from Fujirebio according to the manufacturer's instructions (INNOTEST β-AMYLOID(1-42), INNOTEST β-AMYLOID(1-40), INNOTEST hTau Ag, INNOTEST PHOSPHO-TAU(181P), Uman Diagnostics NFL assay). Neurogranin was measured with a sandwich ELISA method using antibodies Ng2 and Ng22 developed at the University of Gotteborg (Kvartsberg et al. 2015). Identical aliquots of CSF, and plasma were analyzed for protein expression changes via LC/MSMS at Caprion (see below).
LC MSMS biomarker discovery: Matched screening and day 28 plasma and CSF samples were analyzed by LC/MSMS at Caprion Biosciences Inc. Plasma was depleted of high and medium abundance proteins using a commercial immunoaffinity column, IgY14-Supermix (Sigma). CSF was depleted of only 14 high abundance proteins using MARS-14 (Agilent). All samples were digested with trypsin and plasma samples were fractionated by strong cation exchange chromatography (3 fractions). Both CSF and plasma samples were analyzed using a NanoAcquity UPLC coupled to a Q Exactive MS. […] The 12 most intense peaks per survey scan with charge states 2-8 fragmented and scanned with a mass range from 200 to 2000 m/z at a resolution of 17,500. Raw spectrometer data files for each LC-MS run were aligned independently using Elucidator software (Rosetta Biosoftware). The MS/MS spectra were matched to corresponding peptide sequences found in the Uniprot Human protein database (January 2017) using Mascot software, allowing for up to 2 missed cleavages, a peptide tolerance of 20 ppm, and an MS/MS tolerance of 0.05 Da. Outlier detection was performed by determining the average log-intensity of all isotope groups (IG) over injection order for all samples. Samples with an average value greater than 2 standard deviations from the mean were flagged for investigation. Following data transformation and normalization, expression analysis of the identified isotope groups was performed and the statistical significance of each comparison was assessed with a parametric, linear mixed model (LMM) and a non-parametric Wilcoxon ranked test (ranked p-values). Expression analysis was also performed at the peptide and protein levels, which used the same methodology as above, but applied to peptide/protein intensities, derived by rolling-up the corresponding isotope group intensities. Isotope groups not detected in at least half of the samples in either of the two groups being compared were not used for the roll-up.
Heat map analysis: The difference in protein abundance between day 28 and baseline for each sample was normalized for graphical comparison by converting to z-score. First, the mean and standard deviation (SD) of day 28—baseline values were calculated across all paired samples for each protein. Then, for each patient's paired sample fold change, the difference from the mean was determined and divided by the SD to derive the z-score. […]

Structure (SMILES): CC(C)(C)Oc1cc(CCC(C)(C)N2Cc3ccc(S(C)(=O)=O)cc3C2)ccc1O [CT1812]
- COWAT (Trial 2), Mean (SD) ([1]; Day 14, Day 0: 9.6 (4.2)): 10.6 (5.1)
- COWAT (Trial 1), Mean (SD) ([1]; Day 14, Day 0: 11.3 (5.7)): 12.6 (4.5)
- COWAT (Trial 3), Mean (SD) ([1]; Day 14, Day 0: 14.6 (5.7)): 15.1 (3.7)
- RAVLT, Mean (SD) ([1]; Day 14, Day 0: 17.3 (3.9)): 18.7 (3.1)
- WMS-R (Digit Span), Mean (SD) ([1]; Day 14, Day 0: 17.9 (3.3)): 17.9 (3.3)
- CFT, Mean (SD) ([1]; Day 14, Day 0: 18.4 (5.5)): 19.7 (2.4)
- DSST, Mean (SD) ([1]; Day 14, Day 0: 78.3 (11.0)): 80 (9.6)
- Synaptotagmin-1 expression in CSF, decrease in CT1812-treated vs. placebo (CSF proteins; AD patients, 28 days): 63%
- number of CSF proteins changed differentially vs placebo (CSF proteins; AD patients, 28 days, p<0.05): 30
- FC (Treated) AFM (CSF proteins; CSF, 28 days vs screening): 0.94
- FC (Treated) ANGPTL2 (CSF proteins; CSF, 28 days vs screening): 0.80
- FC (Treated) CNTN1 (CSF proteins; CSF, 28 days vs screening): 0.97
- FC (Treated) EFNB1 (CSF proteins; CSF, 28 days vs screening): 0.97
- FC (Treated) EPHA4 (CSF proteins; CSF, 28 days vs screening): 0.94
- FC (Treated) MBL2 (CSF proteins; CSF, 28 days vs screening): 0.75
- FC (Treated) NPPC (CSF proteins; CSF, 28 days vs screening): 0.90
- FC (Treated) P4HB (CSF proteins; CSF, 28 days vs screening): 1.10
- FC (Treated) RBP4 (CSF proteins; CSF, 28 days vs screening): 0.82
- FC (Treated) ROBO1 (CSF proteins; CSF, 28 days vs screening): 0.96
- FC (Treated) SEMA3F (CSF proteins; CSF, 28 days vs screening): 1.40
- FC (Treated) SERPINA4 (CSF proteins; CSF, 28 days vs screening): 0.88
- FC (Treated) SMPDL3B (CSF proteins; CSF, 28 days vs screening): 0.97
- FC (Treated) SYT1 (CSF proteins; CSF, 28 days vs screening): 0.78
- FC (Treated) TPII (CSF proteins; CSF, 28 days vs screening): 0.90
- FC (Treated) YWHAB (CSF proteins; CSF, 28 days vs screening): 0.90
- FC (Treated vs. Placebo) AFM (CSF proteins; CSF, 28 days, p-value 0.002, rank p-value 0.003): 0.84
- FC (Treated vs. Placebo) SYT1 (CSF proteins; CSF, 28 days, p-value 0.011, rank p-value 0.011): 0.63
- FC (Treated vs. Placebo) RBP4 (CSF proteins; CSF, 28 days, p-value 0.018, rank p-value 0.011): 0.81
- FC (Treated vs. Placebo) MBL2 (CSF proteins; CSF, 28 days, p-value 0.020, rank p-value 0.006, FC>10 may be artifact): >10
- FC (Treated vs. Placebo) TNC (CSF proteins; CSF, 28 days, p-value 0.029, rank p-value 0.011): 0.91
- FC (Treated vs. Placebo) EFNB1 (CSF proteins; CSF, 28 days, p-value 0.029, rank p-value 0.034): 0.93
- FC (Treated vs. Placebo) EPHA4 (CSF proteins; CSF, 28 days, p-value 0.035, rank p-value 0.076): 0.93
- FC (Treated vs. Placebo) MDGA2 (CSF proteins; CSF, 28 days, p-value 0.036, rank p-value 0.106): 0.71
- FC (Treated vs. Placebo) YWHAB (CSF proteins; CSF, 28 days, p-value 0.038, rank p-value 0.148): 0.81
- FC (Treated vs. Placebo) ROBO1 (CSF proteins; CSF, 28 days, p-value 0.042, rank p-value 0.106): 0.82
- FC (Treated vs. Placebo) TPII (CSF proteins; CSF, 28 days, p-value 0.044, rank p-value 0.076): 0.87
- FC (Treated vs. Placebo) CD14 (CSF proteins; CSF, 28 days, p-value 0.046, rank p-value 0.034): 1.20
- FC (Treated vs. Placebo) SERPINA4 (CSF proteins; CSF, 28 days, p-value 0.047, rank p-value 0.020): 0.79
- FC (Treated vs. Placebo) CNTN1 (CSF proteins; CSF, 28 days, p-value 0.048, rank p-value 0.076): 0.81
- FC (Treated vs. Placebo) ANGPTL2 (CSF proteins; CSF, 28 days, p-value 0.050, rank p-value 0.148): 0.69
- FC (Treated vs. Placebo) NPPC (CSF proteins; CSF, 28 days, p-value 0.060, rank p-value 0.020): 0.91

Source: patent US20250177351A1, “ISOINDOLINE COMPOSITIONS AND METHODS FOR TREATING NEURODEGENERATIVE DISEASE” (Cognition Therapeutics, Inc., priority 2022, published 2025)
